Reference: US5366963A, “Gangliosides with immunosuppressive ceramide moieties” (The Regents of the University of California, priority 1993, dated 1994)
Values joined by “and” are separate entries in the source; they are usually repeats but may differ in a detail not shown here. Equal entries are not always repeated. Where two headings read alike, the source gives them in different places.

Tests used:
[1] = system: normal human peripheral blood mononuclear cells (PBMC); experiment: cells; format: cell-based; details: for inhibition at 5 µM / inhibition at 10 µM / inhibition at 2.5 µM: Homo sapiens, PBMC
[2] = system: humoral or cellular immunity; details: Presti et al. 1989; cited from earlier work

Molecule | cpm (3H-thymidine uptake) [1] | immunosuppressive activity (in words) [1] | inhibition at 5 µM [1] [%] | inhibition at 10 µM [1] [%] | inhibition at 2.5 µM ([1]; read-out: % inhibition (NI)) [%] | suppressive effect on humoral or cellular immunity in vivo [2] | inhibition at 2.5 µM ([1]; read-out: % inhibition) [%]
CCCCCCCCCCCCC/C=C/[C@@H](O)[C@H](CO[C@@H]1O[C@H](CO)[C@@H](O[C@@H]2O[C@H](CO)[C@H](O[C@@H]3O[C@H](CO)[C@H](O)[C@H](O)[C@H]3NC(C)=O)[C@H](O[C@]3(C(=O)O)C[C@H](O)[C@@H](NC(C)=O)[C@H]([C@H](O)[C@H](O)CO)O3)[C@H]2O)[C@H](O)[C@H]1O)NC(=O)C(O)CCCCCCCCCCCCCCCC (stereo partly drawn) [d18:1-hC18:0 GM2] | 16.7 cpm × 10^-3 and 11.4 cpm × 10^-3 and 12.9 cpm × 10^-3 | less immunosuppressive than the non-hydroxylated species | 30 | 21 | < 0 | – | –
GM1 ganglioside | – | – | – | – | – | no evidence of a suppressive effect | –
CCCCCCCCCCCCC/C=C/[C@@H](O)[C@H](CO[C@@H]1O[C@H](CO)[C@@H](O[C@@H]2O[C@H](CO)[C@H](O[C@@H]3O[C@H](CO)[C@H](O)[C@H](O)[C@H]3NC(C)=O)[C@H](O[C@]3(C(=O)O)C[C@H](O)[C@@H](NC(C)=O)[C@H]([C@H](O)[C@H](O)CO)O3)[C@H]2O)[C@H](O)[C@H]1O)NC(=O)CCCCCCCCCCCCCCCCC [d18:1-C18:0 GM2] | – | – | 47 | 86 | – | – | 31
